Experimental findings from article PMC2832019, “In Vitro Metabolic and Mitogenic Signaling of Insulin Glargine and Its Metabolites” (PLoS ONE, 2010) are described below.

The subject of test [1] is primary rat adipocytes. Description: Metabolic activity: insulin-stimulated lipid synthesis in primary rat adipocytes. To be noted: for EC50: incorporation of [3-^3H]glucose into toluene-extractable lipids, 90 min at 37°C, pH 7.4, means ± SEM, five different adipocyte preparations, read-out: Metabolic potency EC50; for lipid synthesis EC50 higher relative to human insulin: fold higher EC50 relative to insulin; for metabolic activity, EC50 lower than M1: relative to M1. It counts as cell-based, rat (Sprague-Dawley). The method, then: The metabolic activity of the different insulins was compared using insulin-stimulated lipid synthesis in primary rat adipocytes. Primary rat adipocytes were prepared according to published procedures, [33]. Briefly, rats (Sprague-Dawley, male, 140–160 g, fed ad libitum) were provided from Charles-River (Sulzfeld, Germany) and killed by cervical dislocation in accordance with the German animal protection law. The animals were used for the preparation of primary adipocytes, exclusively, and were not subjected to any pretreatment, such as drug administration or starvation. Epididymal fat pads were rapidly removed, stripped of blood vessels and placed in PBS. Subsequently, the pads were washed with KRBB bubbled with 5% O2/95% CO2. Each pad was then cut into two or three pieces. Two pieces of each were incubated with 1.5 mL of digestion buffer (10 mg collagenase [Worthington Inc., CLS, type I, 190 units/mg] in 10 ml of KRBB containing 9 mg glucose) for 15–30 min at 37°C in a shaking water bath (240 cycles/min). Released adipocytes were separated from residual undigested tissue by passage through a nylon web (mesh size 150 µm) and washed by flotation in a plastic tube two or three times with KRBB and adjusted to the appropriate titer of 3.5×10^5 cells/mL. For distribution of the adipocytes, 200 µL of the suspension was removed under continuous gentle stirring with a plastic agitator.
Lipid synthesis was measured as the incorporation of [3-^3H]glucose into toluene-extractable lipids, at a final cell titer of […] in KRBB (1.2 mM KH2PO4, 1.2 mM MgSO4, 4.8 mM KCl, 25 mM NaHCO3, 120 mM NaCl, 2.4 mM CaCl2, containing 1% BSA [defatted, fraction V, Sigma, Deisenhofen, Germany] and 37 µM glucose and adjusted to pH 7.4) according to published procedures (Müller et al., 2008) with the following modifications: 680 µL of KRBB were filled into 10-mL scintillation vials and supplemented with 100 µL of D-[3-^3H]glucose (2 µCi/mL KRBB, 1 mM, Amersham-Buchler, Braunschweig, Germany) and 20 µL of insulin solution in KRBB. Lipid synthesis was started by the addition of 200 µL of adipocyte suspension in KRBB. After incubation for 90 min at 37°C under an atmosphere of 5% O2/95% CO2 and gentle shaking, 10 mL of toluene-based scintillation cocktail (Quickszint 501, Zinsser, Germany) was added. The samples were vigorously mixed and after phase separation (2 to 4 h) measured for radioactivity by liquid scintillation counting. Determination of the radioactivity contained in the toluene phase and corrected for non-specific spill-over of the radioactivity of unincorporated radiolabelled glucose contained in the water phase predominantly reflects the de novo lipid synthesis.
(§1) For each experiment, IC50 or EC50 values were obtained using the 4-parameter logistic model according to Ratkowsky and Reedy (1986). The adjustment was obtained by non-linear regression using the Levenberg-Marquardt algorithm in SAS v9.1.3 software via Biost@t-Speed V2.0-LTS internal application. If necessary, lower and upper asymptotes were set to 0 and 100, respectively.
Figure 3 Metabolic activity of insulin glargine and its metabolites in rat adipocytes. To compare the metabolic activity of glargine and its metabolites insulin-stimulated lipid synthesis in isolated primary rat adipocytes was analyzed by incorporation of [3-^3H]glucose into toluene-extractable lipids and subsequent measurement of radioactivity by liquid scintillation counting. The adipocytes were treated with increasing concentrations of insulin, analogs, metabolites or IGF-1 for 90 min at 37°C in the presence of [3-^3H]glucose. Each point represents the mean ± SEM of five different adipocyte preparations with activity measurements done in duplicate.

Test [2] deals with human IR-A. Description: Competitive receptor binding (SPA), IR-A. The settings on record: for higher affinity for IR-A than IR-B: IR-A relative to IR-B; for IC50: SPA, WGA PVT PEI beads, 2 µg membranes from CHO cells overexpressing IR-A, 100 pmol/L A14[^125I]-insulin, pH 7.8, 12 h, 23°C, means ± SEM, at least three times, read-out: IR-A affinity IC50; for difference in affinity between IR-A and IR-B: IR-A vs IR-B, in words; for IR-A binding, less active than human insulin: decrease relative to human insulin. The method, then: The binding of the different insulins to the human IR-A and IR-B was analyzed in a competitive binding assay using the scintillation proximity assay as previously described, [30]. […] Briefly, cells were grown to confluence and gently detached, transferred to a centrifugation tube followed by centrifugation for 10 minutes at 600×g at 4°C. The pellet was resuspended in ice-cold 2.25 STM buffer (2.25 mol/L sucrose, 5 mmol/L Tris-HCl pH 7.4, 5 mmol/L MgCl2, 1x Complete Protease Inhibitor) and disrupted using a hand-held Dounce homogenizer followed by sonication. This homogenate was transferred to a centrifugation tube, overlaid with 0.8 STM buffer (0.8 mol/L sucrose, 5 mmol/L Tris-HCl pH 7.4, 5 mmol/L MgCl2, 1x Complete Protease Inhibitor) and centrifuged for 90 minutes at 100 000×g at 4°C. The emerging pellicle at the interface was collected, transferred to a new tube and washed two times with PBS by centrifugation for 10 minutes at 1500×g. The final pellet was resuspended in a small volume of dilution buffer (50 mmol/L Tris-HCl pH 7.4, 5 mmol/L MgCl2, 1x Complete Protease Inhibitor) and homogenized with a Dounce homogenizer. These plasma membrane preparations were stored until usage at –80°C.
(§2) Binding experiments were conducted in 96-well microplates. Per well 2 µg of membranes were incubated with 0.25 mg wheat germ agglutinin polyvinyltoluene polyethylenimine SPA beads, 100 pmol/L A14[^125I]-insulin and various concentrations of unlabeled insulins in a binding buffer containing 0.05 mol/L Tris-HCl pH 7.8, 0.15 mol/L NaCl, 0.1% BSA, Complete Protease Inhibitor for 12 hours at room temperature (23°C). The radioactivity was measured at equilibrium in a microplate scintillation counter (Wallac Microbeta, Freiburg, Germany).
as §1
The binding of a constant concentration of [^125I]insulin to plasma membranes from CHO cells overexpressing either IR-A or IR-B was measured in presence of increasing concentrations of unlabeled competing ligand after incubation at room temperature for 12 h. All data has been corrected for non-specific binding and are expressed as percentage of [^125I]insulin in absence of competing ligand. To analyze the insulin-stimulated activation and subsequent autophosphorylation of the insulin receptor CHO cells overexpressing the human IR-A (C) or IR-B (D) were stimulated for 15 min at 37°C with increasing concentrations of peptides, then the cells were fixed with 3.7% PFA and the amount of phosphotyrosines was analyzed via In-Cell Western. The data represent mean values ± SEM of at least 3 individual experiments measured in quadruplicate.

Test [3] deals with human IGF1R. The test is described as follows: Competitive binding, IGF1R. The settings on record: for IC50: [^125I]IGF-1 as radioactive ligand, means ± SEM, at least three times, read-out: IGF1R affinity IC50. The method, then:
as §2, §1
Figure 4 Activity of insulin analogs on the human IGF1R and mitogenic potential in Saos-2 cells. Analysis of binding to the human IGF1R using [^125I]IGF-1 as radioactive ligand (A) and analysis of the insulin-stimulated autophosphorylation of the human IGF1R overexpressed in MEF cells (B) were done as described in figure 2 and Materials and Methods. Data are given as means ± SEM. […] Confluent cells were starved for 4 h and then incubated for 19 h with increasing concentrations of IGF-1, insulin or analog in serum free medium. [^14C]thymidine was added for further 6 h and the radioactivity measured in a Wallac Micro Scintillation counter. Data are given as means ± SEM from octuplicate sample.

Usually EC50 stands for the concentration giving half of the maximal effect. With “Human insulin: human insulin produced by recombinant DNA techniques or enzymatic semisynthesis”, the EC50 in test [1] was determined as 0.045 ± 0.003 nM.
What is called IC50 is the concentration at which inhibition is half-maximal. With “IGF-1: IGF-1 obtained from R&D Systems and Cell Sciences”, in test [1], the “lipid synthesis EC50 higher relative to human insulin” value was found to be 422 fold and the EC50 is 19 ± 0.93 nM. Besides, in test [2], the “higher affinity for IR-A than IR-B” value was found to be 2.7 fold and the concentration for half-maximal inhibition (IC50) is 64.5 ± 5.1 nM. Besides, the “IR-A affinity less potent than human insulin” value in test [2] (IR-A, relative to human insulin) is “approximately 130 fold”. Also, in test [3], the IC50 worked out at 0.89 ± 0.19 nM.
Consider [Asp^B10]insulin, for which, in test [1], the EC50 is 0.031 ± 0.005 nM. Also, in test [2], the “higher affinity for IR-A than IR-B” value is given as 3.5 fold and the IC50 stood at 0.06 ± 0.01 nM. Further, the “IR-A binding, more potent relative to human insulin” value in test [2] (relative to human insulin) was 8.2 fold. The IC50 in test [3] is 104 ± 12.8 nM.
Turning to “[Gly^A21,Arg^B31,Arg^B32]insulin [Glargine]”, in test [1], the “lipid synthesis EC50 higher relative to human insulin” value is reported as 1.4 fold and the EC50 worked out at 0.066 ± 0.005 nM. Also, in test [2], the “difference in affinity between IR-A and IR-B” value (“difference” below) is on record as “no difference”; the IC50 was determined as 0.83 ± 0.08 nM; the “IR-A binding, less active than human insulin” value is reported as 40–50%. Besides, the half-maximal inhibitory concentration (IC50) in test [3] turned out to be 63.2 ± 19.9 nM.
As to [Gly^A21,Arg^B31]insulin [Glargine IM], in test [1], the EC50 amounted to 0.098 ± 0.012 nM and the “metabolic activity, EC50 lower than M1” value was 0.6 fold. Besides, in test [2], the “difference” value was “no difference”; the concentration for half-maximal inhibition (IC50) turned out to be 0.78 ± 0.03 nM; the “IR-A binding, less active than human insulin” value was 40–50%. For the same substance, in test [3], the concentration for half-maximal inhibition (IC50) was 80 ± 10.2 nM.
For the substance “[Gly^A21,des-Thr^B30]insulin [Glargine M2]”, in test [1], the EC50 is 0.087 ± 0.007 nM and the “metabolic activity, EC50 lower than M1” value came to 0.6 fold. Further, in test [2], the “difference” value is listed as “no difference”; the IC50 is 0.93 ± 0.16 nM; the “IR-A binding, less active than human insulin” value is recorded as 40–50%. Moreover, in test [3], the IC50 was determined as 427 ± 20.6 nM and the “IGF1R affinity in words” value is listed as “significantly reduced”.
Take [Gly^A21]insulin [Glargine M1]: in test [1], the “lipid synthesis EC50 higher relative to human insulin” value worked out at 3.0 fold and the EC50 amounted to 0.139 ± 0.009 nM. Further, in test [2], the “difference” value is “no difference”; the IC50 is 1.02 ± 0.03 nM; the “IR-A binding, less active than human insulin” value is 40–50%. Moreover, in test [3], the IC50 stood at 649 ± 31.9 nM and the “IGF1R affinity in words” value is on record as “significantly reduced”.
